Assays:
[1] = molecular target: JAK1 (recombinant purified GST-tagged catalytic domain) (Homo sapiens (Human), UniProt P23458);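 note: biochemical assay with HTRF read-out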
[2] = molecular target: JAK2 (recombinant purified GST-tagged catalytic domain) (Homo sapiens (Human), UniProt O60674);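 note: biochemical JAK kinase assay with HTRF detection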
Chain of JAK2 (recombinant purified GST-tagged catalytic domain) (O60674 849-1124): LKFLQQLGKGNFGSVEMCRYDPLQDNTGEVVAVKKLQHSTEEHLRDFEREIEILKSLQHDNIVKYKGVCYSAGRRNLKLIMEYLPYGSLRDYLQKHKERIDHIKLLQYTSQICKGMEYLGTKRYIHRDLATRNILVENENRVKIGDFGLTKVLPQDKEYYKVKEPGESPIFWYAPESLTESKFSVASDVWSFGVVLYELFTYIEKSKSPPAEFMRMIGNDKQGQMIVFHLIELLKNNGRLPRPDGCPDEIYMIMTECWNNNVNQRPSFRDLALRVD

Chain of JAK1 (recombinant purified GST-tagged catalytic domain) (P23458 875-1153): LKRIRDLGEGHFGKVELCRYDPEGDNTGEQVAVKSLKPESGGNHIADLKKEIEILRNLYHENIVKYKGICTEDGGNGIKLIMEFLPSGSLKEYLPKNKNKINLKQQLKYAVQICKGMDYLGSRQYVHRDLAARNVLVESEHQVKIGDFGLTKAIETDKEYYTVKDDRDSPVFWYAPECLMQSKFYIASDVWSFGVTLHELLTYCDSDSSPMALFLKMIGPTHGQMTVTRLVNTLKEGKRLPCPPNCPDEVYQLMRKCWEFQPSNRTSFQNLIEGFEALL

SMILES | IC50 [1] [nM] | IC50 [2] [nM]
N#C[C@@H]1CCC[C@@H]1n1cc(C(N)=O)c(Nc2ccccc2)n1 (mixture of isomers) [Example 1-1, 1-{[(1S,2R) and (1R,2S)]-2-cyanocyclopentyl]}-3-(phenylamino)-1H-pyrazole-4-carboxamide] | 96 | 696
N#C[C@@H]1CCC2(C[C@@H]1n1cc(C(N)=O)c(Nc3ccccc3)n1)OCCO2 (single isomer, unassigned) [Example 45-4, 1-[(7S,8R or 7R,8S)-8-Cyano-1,4-dioxaspiro[4.5]dec-7-yl]-3-(phenylamino)-1H-pyrazole-4-carboxamide] | 13 | 59
CC(C)(C)OC(=O)C1CC[C@H](C#N)[C@@H](n2cc(C(N)=O)c(Nc3ccccc3)n2)C1 (mixture of isomers) [Example 12-1, (3S,4S and 3R,4R)-tert-butyl 3-(4-carbamoyl-3-(phenylamino)-1H-pyrazol-1-yl)-4-cyanocyclohexanecarboxylate] | 7 | 50
CC(C)(C)OC(=O)C1CC[C@@H](C#N)[C@@H](n2cc(C(N)=O)c(Nc3ccccc3)n2)C1 (mixture of isomers) [Example 12-2, (3S,4R and 3R,4S)-tert-butyl 3-(4-carbamoyl-3-(phenylamino)-1H-pyrazol-1-yl)-4-cyanocyclohexanecarboxylate] | 257 | > 1500
